Columns and labels:
[1] = molecular target: Aldo-keto reductase family 1 member B1 (Rattus norvegicus, UniProt P07943); assay: Inhibition of Sprague-Dawley rat lens ALR2 using D,L-glyceraldehyde as substrate preincubated for 10 mins followed by substrate addition measured for 5 mins by spectrophotometric method
[2] = molecular target: Aldo-keto reductase family 1 member A1 (Rattus norvegicus, UniProt P51635); assay: Inhibition of Sprague-Dawley rat kidney ALR1 using sodium D-glucuronate as substrate by spectrophotometric method
[3] = molecular target: Aldo-keto reductase family 1 member B1 (Bos taurus, UniProt P16116); assay: Inhibition of bovine lens ALR2 using D,L-glyceraldehyde as substrate measured for 4 mins by spectrophotometric method

Chain of Aldo-keto reductase family 1 member A1 (P51635 whole entry, looked up): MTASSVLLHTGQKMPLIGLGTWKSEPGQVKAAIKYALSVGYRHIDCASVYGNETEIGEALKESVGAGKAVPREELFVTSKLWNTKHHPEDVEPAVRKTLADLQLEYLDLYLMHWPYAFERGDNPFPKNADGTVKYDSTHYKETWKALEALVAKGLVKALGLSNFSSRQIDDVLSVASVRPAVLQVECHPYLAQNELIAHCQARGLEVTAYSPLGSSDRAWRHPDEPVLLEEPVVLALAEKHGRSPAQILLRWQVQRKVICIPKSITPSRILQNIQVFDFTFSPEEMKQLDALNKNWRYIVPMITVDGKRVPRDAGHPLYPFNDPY

| IC50 [1] [µM] | IC50 [2] [µM] | IC50 [3] [µM] | SMILES |
| --- | --- | --- | --- |
| 2.38 | > 100 |  | COc1ccc(C(=O)N(OCc2ccccc2Cl)C(C)C(=O)O)cc1 (stereo not drawn) |
| 2.69 | > 100 |  | CC(C(=O)O)N(OCc1ccc(Cl)cc1)C(=O)c1ccccc1 (stereo not drawn) |
| > 100 | > 100 |  | COc1ccc(C(=O)N(OCc2cccc(Cl)c2)C(C)C(=O)O)cc1 (stereo not drawn) |
|  |  | 6.3 | COc1ccc(C(=O)N(CC(=O)O)OCc2ccc(Cl)cc2)cc1 |
| 46.7 | > 100 |  | CC(C(=O)O)N(OCc1ccccc1)C(=O)c1ccccc1 (stereo not drawn) |
| 12.5 | > 100 |  | CC(C(=O)O)N(OCc1cccc(Cl)c1)C(=O)c1ccccc1 (stereo not drawn) |
| 10.1 | > 100 |  | COc1ccc(C(=O)N(OCc2ccc(Cl)cc2)C(C)C(=O)O)cc1 (stereo not drawn) |
| > 100 | > 100 |  | COc1ccc(C(=O)N(OCc2ccccc2)C(C)C(=O)O)cc1 (stereo not drawn) |
|  |  | 3.5 | COc1ccc(C(=O)N(CC(=O)O)OCc2ccccc2)cc1 |
| 4.88 | > 100 |  | CC(C(=O)O)N(OCc1ccccc1Cl)C(=O)c1ccccc1 (stereo not drawn) |

— ChEMBL document CHEMBL4033633, “N-(Aroyl)-N-(arylmethyloxy)-α-alanines: Selective inhibitors of aldose reductase” (Bioorg Med Chem, 2017)
